Laboratory results reported in patent US7517874B2 (priority 2007, dated 2009).
Read-outs that look alike come from different tables or passages of the source.

Experiments:
[1] = biological target: human CB1 receptor (hCB1) (Homo sapiens, UniProt P21554); assay: cell-based; format: cell-based; details: for +/− HCB1: agonist or inverse agonist at hCB1
Outline: (§1)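 First, cells in IBMX-containing HEPES-buffered HBSS are raised to elevated cAMP with 2-8 μM NKH-477 for 30 min. Data are normalised to the forskolin and forskolin + 1 μM CP55,940 controls.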

rat CB2 receptor (rCB2) = biological target: T1, rat CB2 receptor (rCB2) (Rattus norvegicus, UniProt Q9QZN9); assay: cell-based; format: cell-based; details: for EC50: groups >100 nM-10 μM and >10 μM, cAMP, CHO-K1 rCB2, read-out: EC50 RCB2; for +/− RCB2: agonist or inverse agonist at rCB2
T1 sequence (Q9QZN9 1-360): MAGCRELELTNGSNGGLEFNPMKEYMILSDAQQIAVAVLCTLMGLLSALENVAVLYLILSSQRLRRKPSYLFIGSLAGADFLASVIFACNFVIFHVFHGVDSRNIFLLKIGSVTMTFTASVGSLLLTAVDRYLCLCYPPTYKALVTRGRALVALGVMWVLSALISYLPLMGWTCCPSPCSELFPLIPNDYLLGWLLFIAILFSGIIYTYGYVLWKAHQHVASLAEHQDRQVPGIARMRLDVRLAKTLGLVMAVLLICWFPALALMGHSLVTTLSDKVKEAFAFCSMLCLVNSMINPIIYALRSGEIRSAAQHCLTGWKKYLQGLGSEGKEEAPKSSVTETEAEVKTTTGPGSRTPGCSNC
Outline: as §1

[2] = groups >100 nM-10 μM and >10 μM, cAMP, CHO-K1 hCB1, read-out: EC50 HCB1

Chain of human CB1 receptor (hCB1) (P21554 whole entry): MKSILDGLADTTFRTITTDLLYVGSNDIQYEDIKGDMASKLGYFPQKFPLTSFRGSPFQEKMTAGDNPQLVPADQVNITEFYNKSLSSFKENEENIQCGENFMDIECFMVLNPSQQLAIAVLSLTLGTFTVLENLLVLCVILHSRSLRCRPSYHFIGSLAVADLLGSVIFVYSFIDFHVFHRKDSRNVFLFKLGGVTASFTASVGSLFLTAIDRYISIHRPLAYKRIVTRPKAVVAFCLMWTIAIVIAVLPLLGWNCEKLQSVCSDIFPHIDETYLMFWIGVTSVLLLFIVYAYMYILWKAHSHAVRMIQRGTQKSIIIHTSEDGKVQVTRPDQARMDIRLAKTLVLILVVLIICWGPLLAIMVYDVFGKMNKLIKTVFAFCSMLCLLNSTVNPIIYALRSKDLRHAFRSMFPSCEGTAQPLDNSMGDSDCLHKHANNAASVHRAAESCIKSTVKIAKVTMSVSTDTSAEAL

SMILES	EC50 [1, 2]	EC50 (rat CB2 receptor (rCB2))	EC50 [1]	+/− RCB2 (rat CB2 receptor (rCB2))	+/− HCB1 [1]
C[C@H](NC(=O)c1nc(-c2ccccc2)n2c1CN(C)CC2)C(C)(C)C [Compound 51, (S)-N-(3,3-dimethylbutan-2-yl)-7-methyl-3-phenyl-5,6,7,8-tetrahydroimidazo[1,5-a]pyrazine-1-carboxamide]	> 10000 nM	> 10000 nM			
CNC(=O)[C@H](CC(C)C)NC(=O)c1nc(-c2ccc(Cl)cc2F)n2c1CN(C)CC2 [Compound 276, (S)-3-(4-chloro-2-fluorophenyl)-7-methyl-N-(4-methyl-1-(methylamino)-1-oxopentan-2-yl)-5,6,7,8-tetrahydroimidazo[1,5-a]pyrazine-1-carboxamide]			> 10000 nM	−	
CNC(=O)[C@@H](NC(=O)c1nc(/C=C/c2ccccc2)n2c1CN(C)CCC2)C(C)(C)C [Compound 336, (S,E)-N-(3,3-dimethyl-1-(methylamino)-1-oxobutan-2-yl)-8-methyl-3-styryl-6,7,8,9-tetrahydro-5H-imidazo[1,5-a][1,4]diazepine-1-carboxamide]			> 10000 nM	−	
CNC(=O)[C@@H](NC(=O)c1nc(-c2ccc(N3CCOCC3)cc2)n2c1CN(C)CCC2)C(C)(C)C [Compound 378, (S)-N-(3,3-dimethyl-1-(methylamino)-1-oxobutan-2-yl)-8-methyl-3-(4-morpholinophenyl)-6,7,8,9-tetrahydro-5H-imidazo[1,5-a][1,4]diazepine-1-carboxamide]			> 10000 nM	−	
CNC(=O)[C@H](CC(C)(C)C)NC(=O)c1nc(-c2ccc(C(F)(F)F)cc2F)n2c1CN(C)CCC2 [Compound 551, (S)-N-(4,4-dimethyl-1-(methylamino)-1-oxopentan-2-yl)-3-(2-fluoro-4-(trifluoromethyl)phenyl)-8-methyl-6,7,8,9-tetrahydro-5H-imidazo[1,5-a][1,4]diazepine-1-carboxamide]				+	+
CNC(=O)[C@@H](NC(=O)c1nc(-c2cccc3cccnc23)n2c1CN(C)CC2)C(C)(C)C [Compound 242, (S)-N-(3,3-dimethyl-1-(methylamino)-1-oxobutan-2-yl)-7-methyl-3-(quinolin-8-yl)-5,6,7,8-tetrahydroimidazo[1,5-a]pyrazine-1-carboxamide]			> 10000 nM	−	
CNC(=O)c1cccc(NC(=O)c2nc(-c3ccc(Cl)cc3F)n3c2CN(C)CC3)c1 [Compound 216, 3-(4-chloro-2-fluorophenyl)-7-methyl-N-(3-(methylcarbamoyl)phenyl)-5,6,7,8-tetrahydroimidazo[1,5-a]pyrazine-1-carboxamide]	> 10000 nM			−	
CN1CCCn2c(-c3ccc(Cl)c(F)c3)nc(C(=O)N[C@H](C(N)=O)C(C)(C)C)c2C1 [Compound 577, (S)-N-(1-amino-3,3-dimethyl-1-oxobutan-2-yl)-3-(4-chloro-3-fluorophenyl)-8-methyl-6,7,8,9-tetrahydro-5H-imidazo[1,5-a][1,4]diazepine-1-carboxamide]				+	+
CNC(=O)[C@@H](NC(=O)c1nc(-c2cc(OC)cc(C(F)(F)F)c2)n2c1CN(C)CCC2)C(C)(C)C [Compound 418, (S)-N-(3,3-dimethyl-1-(methylamino)-1-oxobutan-2-yl)-3-(3-methoxy-5-(trifluoromethyl)phenyl)-8-methyl-6,7,8,9-tetrahydro-5H-imidazo[1,5-a][1,4]diazepine-1-carboxamide]			> 10000 nM	−	
CCCN1CCn2c(-c3ccccc3)nc(C(=O)Nc3ccccc3)c2C1 [Compound 154, N,3-diphenyl-7-propyl-5,6,7,8-tetrahydroimidazo[1,5-a]pyrazine-1-carboxamide]			> 10000 nM	−	
CC(C)CN1CCn2c(-c3ccccc3)nc(C(=O)N[C@H](CO)C(C)(C)C)c2C1 [Compound 60, (S)-N-(1-hydroxy-3,3-dimethylbutan-2-yl)-7-isobutyl-3-phenyl-5,6,7,8-tetrahydroimidazo[1,5-a]pyrazine-1-carboxamide]			> 10000 nM	−	
CNC(=O)[C@@H](NC(=O)c1nc(C2=CCNCC2)n2c1CN(C)CC2)C(C)(C)C [Compound 274, (S)-N-(3,3-dimethyl-1-(methylamino)-1-oxobutan-2-yl)-7-methyl-3-(1,2,3,6-tetrahydropyridin-4-yl)-5,6,7,8-tetrahydroimidazo[1,5-a]pyrazine-1-carboxamide]				−	+
CNC(=O)[C@@H](NC(=O)c1nc(/C=C/CN2CCCC2)n2c1CN(C)CC2)C(C)(C)C [Compound 288, (S,E)-N-(3,3-dimethyl-1-(methylamino)-1-oxobutan-2-yl)-7-methyl-3-(3-(pyrrolidin-1-yl)prop-1-enyl)-5,6,7,8-tetrahydroimidazo[1,5-a]pyrazine-1-carboxamide]			> 10000 nM	−	
CN1CCCn2c(-c3ccc(Cl)cc3F)nc(C(=O)N[C@@H](CC(C)(C)C)C(N)=O)c2C1 [Compound 584, (S)-N-(1-amino-4,4-dimethyl-1-oxopentan-2-yl)-3-(4-chloro-2-fluorophenyl)-8-methyl-6,7,8,9-tetrahydro-5H-imidazo[1,5-a][1,4]diazepine-1-carboxamide]				+	+
CN1CCn2c(-c3ccc(Cl)cc3F)nc(C(=O)Nc3ccc(S(N)(=O)=O)cc3)c2C1 [Compound 208, 3-(4-chloro-2-fluorophenyl)-7-methyl-N-(4-sulfamoylphenyl)-5,6,7,8-tetrahydroimidazo[1,5-a]pyrazine-1-carboxamide]			> 10000 nM	−	
CNC(=O)[C@@H](NC(=O)c1nc(-c2ccccc2)n2c1CN(S(=O)(=O)C(C)C)CC2)C(C)(C)C [Compound 94, (S)-N-(3,3-dimethyl-1-(methylamino)-1-oxobutan-2-yl)-7-(isopropylsulfonyl)-3-phenyl-5,6,7,8-tetrahydroimidazo[1,5-a]pyrazine-1-carboxamide]			> 10000 nM	−	
CNC(=O)[C@@H](NC(=O)c1nc(-c2ccncc2F)n2c1CN(C)CCC2)C(C)(C)C [Compound 451, (S)-N-(3,3-dimethyl-1-(methylamino)-1-oxobutan-2-yl)-3-(3-fluoropyridin-4-yl)-8-methyl-6,7,8,9-tetrahydro-5H-imidazo[1,5-a][1,4]diazepine-1-carboxamide]				+	+
CNC(=O)c1ccccc1NC(=O)c1nc(-c2ccc(Cl)cc2F)n2c1CN(C)CC2 [Compound 217]	> 10000 nM	> 10000 nM			
CNC(=O)[C@@H](NC(=O)c1nc(-c2cccc(C(F)(F)F)c2F)n2c1CN(C)CCC2)C(C)(C)C [Compound 364, (S)-N-(3,3-dimethyl-1-(methylamino)-1-oxobutan-2-yl)-3-(2-fluoro-3-(trifluoromethyl)phenyl)-8-methyl-6,7,8,9-tetrahydro-5H-imidazo[1,5-a][1,4]diazepine-1-carboxamide]			> 10000 nM	−	
CNC(=O)[C@@H](NC(=O)c1nc(-c2ccc3c(c2)OCO3)n2c1CN(C)CCC2)C(C)(C)C [Compound 341, (S)-3-(benzo[d][1,3]dioxol-5-yl)-N-(3,3-dimethyl-1-(methylamino)-1-oxobutan-2-yl)-8-methyl-6,7,8,9-tetrahydro-5H-imidazo[1,5-a][1,4]diazepine-1-carboxamide]			> 10000 nM	−	
CNC(=O)[C@@H](NC(=O)c1nc(-c2ccccc2)n2c1CN(C(=O)C(C)(C)C)CC2)C(C)(C)C [Compound 190, (S)-N-(3,3-dimethyl-1-(methylamino)-1-oxobutan-2-yl)-3-phenyl-7-pivaloyl-5,6,7,8-tetrahydroimidazo[1,5-a]pyrazine-1-carboxamide]			> 10000 nM	−	
CNC(=O)[C@H](CC(C)C)NC(=O)c1nc(-c2cc(Cl)ccc2F)n2c1CN(C)CCC2 [Compound 536, (S)-3-(5-chloro-2-fluorophenyl)-8-methyl-N-(4-methyl-1-(methylamino)-1-oxopentan-2-yl)-6,7,8,9-tetrahydro-5H-imidazo[1,5-a][1,4]diazepine-1-carboxamide]			> 10000 nM	+	
CNC(=O)[C@@H](NC(=O)c1nc(/C=C/CC2CCCC2)n2c1CN(C)CCC2)C(C)(C)C [Compound 445, (S,E)-3-(3-cyclopentylprop-1-enyl)-N-(3,3-dimethyl-1-(methylamino)-1-oxobutan-2-yl)-8-methyl-6,7,8,9-tetrahydro-5H-imidazo[1,5-a][1,4]diazepine-1-carboxamide]			> 10000 nM	−	
CNC(=O)[C@H](CC(C)(C)C)NC(=O)c1nc(-c2ccc(F)cc2)n2c1CN(C)CCC2 [Compound 547, (S)-N-(4,4-dimethyl-1-(methylamino)-1-oxopentan-2-yl)-3-(4-fluorophenyl)-8-methyl-6,7,8,9-tetrahydro-5H-imidazo[1,5-a][1,4]diazepine-1-carboxamide]				+	+
CC(C)CCNC(=O)c1nc(-c2ccc(Cl)cc2)n2c1CN(CC(C)C)CC2 [Compound 157, 3-(4-chlorophenyl)-7-isobutyl-N-isopentyl-5,6,7,8-tetrahydroimidazo[1,5-a]pyrazine-1-carboxamide]			> 10000 nM	−	
